Measured values: patent publication US12098139B2, “Chemokine receptor modulators and uses thereof” (RAPT Therapeutics, Inc., priority 2018, dated 2024)
Like-named read-outs stand apart in the source and are kept apart here.

Biological target: T1, hCCR4 (Chem5-hCCR4 cells) (Homo sapiens, UniProt P51679)
T1 sequence (P51679 1-360): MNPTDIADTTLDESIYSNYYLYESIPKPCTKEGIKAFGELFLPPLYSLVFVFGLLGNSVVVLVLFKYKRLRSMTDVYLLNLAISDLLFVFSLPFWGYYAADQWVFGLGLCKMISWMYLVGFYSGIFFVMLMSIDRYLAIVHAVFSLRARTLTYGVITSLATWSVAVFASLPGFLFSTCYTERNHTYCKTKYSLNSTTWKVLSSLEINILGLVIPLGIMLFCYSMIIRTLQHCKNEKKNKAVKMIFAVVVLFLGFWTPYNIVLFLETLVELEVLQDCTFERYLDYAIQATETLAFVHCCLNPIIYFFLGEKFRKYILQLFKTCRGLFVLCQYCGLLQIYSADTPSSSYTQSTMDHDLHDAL
Test: Calcium flux assay (CCL22-stimulated, FLIPR Calcium 6 dye)
Type: cell-based
Conditions: read-out: Potency (IC50)
Method: Calcium Flux Assay. Compounds were evaluated in a calcium flux assay substantially performed as follows. Chem5-hCCR4 cells (EMD Millipore, Hayward, CA; HTS009C) were cultured under standard conditions and frozen in aliquots of 10×10^6 cells/mL. The day prior to compound testing, a vial was rapidly thawed and pipetted into 20 mL media (DMEM+10% FBS+1% Pen-Strep+1% L-glutamine). Cells were harvested by centrifugation and re-suspended in fresh culture medium. 25 μL of cell suspension was seeded into 384-well plates (Corning, Tewksbury, MA; CellBind with black wall/clear bottom). The plates were centrifuged at 300 g for 10 seconds and incubated overnight at 37° C. and 5% CO2. The day of compound testing, media was removed from the plates and 25 μL serum free media was added to each well. Plates were returned to the incubator for 2 h. 25 μL assay buffer (Hank's balanced salt solution+20 mM HEPES pH 7.4) containing FLIPR Calcium 6 dye (Molecular Devices, Sunnyvale, CA; #R8191) and probenecid (2.5 mM) was added to each well and incubated at 37° C. and 5% CO2 for 2 h. Compounds in DMSO were added to the plates using an HP D300e digital dispenser, and all wells were normalized to contain 0.25 μL (0.5%) DMSO. Plates were incubated for 1 hour at 37° C. and 5% CO2. CCL22 (Peprotech; Rockyhill, NJ) was diluted in assay buffer containing 0.1% BSA to 7.5 nM (corresponding to 5×EC80 of 1.5 nM).
Assay plates and working solution of CCL22 were transferred to the FlexStation plate reader (Molecular Devices) at 37° C. for 5 min of equilibration. Fluorescence recordings at 485 excitation/525 emission were performed at 2.5 second intervals. At t=16 seconds, 12.5 μL of CCL22 solution was added to each well and reads continued for 30 seconds at 2.5 second intervals. The minimum fluorescence (Fmin) was calculated by averaging the reads prior to ligand addition and the change in fluorescence (ΔF) was calculated by subtracting the Fmin from the average of the reads following ligand addition. The response ΔF/Fmin was plotted as a function of the compound concentration and the IC50 values were determined by non-linear regression analysis using a 4-parameter fit in either PRISM software (GraphPad; La Jolla, CA) or Dotmatics Browser.

IC50 (Table 5, CCL22 1.5 nM) [nM] | IC50 (Table 3, CCL22 1.5 nM) [nM] | Structure (SMILES) | other results
< 100 | – | C[C@@H](Nc1nc(N2CC([C@H]3CCCN(C4CC(C)(C(=O)O)C4)C3)C2)ncc1CO)c1ccc(Cl)cc1Cl (single isomer, unassigned) [Example 68] | –
– | < 100 | C[C@@H](Nc1nc(N2CC([C@H]3CCCN([C@H]4C[C@](C)(C(=O)O)C4)C3)C2)nc2c1CCC2)c1ccc(Cl)cc1Cl [Example 20, (1R,3r)-3-((R)-3-(1-(4-(((R)-1-(2,4-dichlorophenyl)ethyl)amino)-6,7-dihydro-5H-cyclopenta[d]pyrimidin-2-yl)azetidin-3-yl)piperidin-1-yl)-1-methylcyclobutane-1-carboxylic acid] | –
< 100 | – | CC(=O)c1cnc(N2CC([C@H]3CCCN(C4CC(C)(C(=O)O)C4)C3)C2)nc1N[C@H](C)c1ccc(Cl)cc1Cl (single isomer, unassigned) [Example 78] | –
– | < 100 | Cc1nc(N2CC([C@H]3CCCN([C@H]4C[C@](C)(C(=O)O)C4)C3)C2)nc(N[C@H](C)c2ccc(Cl)cc2Cl)c1C [Example 22, (1R,3r)-3-((R)-3-(1-(4-(((R)-1-(2,4-dichlorophenyl)ethyl)amino)-5,6-dimethylpyrimidin-2-yl)azetidin-3-yl)piperidin-1-yl)-1-methylcyclobutane-1-carboxylic acid] | –
< 100 | – | Cc1cc2c(N[C@H](C)c3ccc(Cl)cc3Cl)nc(N3CC([C@H]4CCCN(C5CC(C)(C(=O)O)C5)C4)C3)nc2s1 (single isomer, unassigned) [Example 67, trifluoroacetic acid] | –
– | > 500 | C[C@@H](Nc1nc(N2CC([C@H]3CCCN([C@H]4C[C@@H](C(=O)O)C4)C3)C2)ncc1F)c1ccc(Cl)cc1Cl [Example 46, (1S,3s)-3-((R)-3-(1-(4-(((R)-1-(2,4-dichlorophenyl)ethyl)amino)-5-fluoropyrimidin-2-yl)azetidin-3-yl)piperidin-1-yl)cyclobutane-1-carboxylic acid] | –
< 100 | – | CCC(O)c1cnc(N2CC([C@H]3CCCN([C@H]4C[C@](C)(C(=O)O)C4)C3)C2)nc1N[C@H](C)c1ccc(Cl)cc1Cl (stereo partly drawn) [Example 73, 3-[(3R)-3-[1-[4-[[(1R)-1-(2,4-dichlorophenyl)ethyl]amino]-5-(1-hydroxypropyl)pyrimidin-2-yl]azetidin-3-yl]-1-piperidyl]-1-methyl-cyclobutanecarboxylic acid; 2,2,2-trifluoroacetic acid] | –
100 to 500 | – | C[C@@H](Nc1nc(N2CC([C@H]3CCCN(C4CC(C)(C(=O)O)C4)C3)C2)nc2nc[nH]c12)c1ccc(Cl)cc1Cl (single isomer, unassigned) [Example 69] | –
< 100 | – | C[C@@H](Nc1nc(N2CC([C@H]3CCCN(C4CC(C)(C(=O)O)C4)C3)C2)nc2cc[nH]c12)c1ccc(Cl)cc1Cl (single isomer, unassigned) [Example 72, trifluoroacetic acid] | –
< 100 | – | CC(C)C(O)c1cnc(N2CC([C@H]3CCCN([C@H]4C[C@](C)(C(=O)O)C4)C3)C2)nc1N[C@H](C)c1ccc(Cl)cc1Cl (stereo partly drawn) [Example 76, 3-[(3R)-3-[1-[4-[[(1R)-1-(2,4-dichlorophenyl)ethyl]amino]-5-(1-hydroxy-2-methyl-propyl)pyrimidin-2-yl]azetidin-3-yl]-1-piperidyl]-1-methyl-cyclobutanecarboxylic acid; 2,2,2-trifluoroacetic acid] | –
< 100 | – | C[C@@H](Nc1nc(N2CC([C@H]3CCCN(C4CC(C)(C(=O)O)C4)C3)C2)nc(CO)c1Cl)c1ccc(Cl)cc1Cl (single isomer, unassigned) [Example 86] | –
– | < 100 | C[C@@H](Nc1nc(N2CC([C@H]3CCCN([C@H]4C[C@@H](C(=O)O)C4)C3)C2)nc2ccsc12)c1ccc(Cl)cc1Cl [Example 31, (1S,3s)-3-((R)-3-(1-(4-(((R)-1-(2,4-dichlorophenyl)ethyl)amino)thieno[3,2-d]pyrimidin-2-yl)azetidin-3-yl)piperidin-1-yl)cyclobutane-1-carboxylic acid] | –

The remaining lines, values behind:

Structure (SMILES) | IC50 (Table 5, CCL22 1.5 nM) [nM] | IC50 (Table 3, CCL22 1.5 nM) [nM] | other results
C[C@@H](Nc1nc(N2CC([C@H]3CCCN([C@H]4C[C@@H](C(=O)O)C4)C3)C2)ncc1C#N)c1ccc(Cl)cc1Cl [Example 93, 3-[(3R)-3-[1-[5-cyano-4-[[(1R)-1-(2,4-dichlorophenyl)ethyl]amino]pyrimidin-2-yl]azetidin-3-yl]-1-piperidyl]cyclobutanecarboxylic acid] | 100 to 500 | – | –
C[C@@H](Nc1cnc(C#N)c(N2CC([C@H]3CCCN(CCC(=O)O)C3)C2)n1)c1ccc(Cl)cc1Cl [Example 53, 3-(3-(1-(3-cyano-6-(((R)-1-(2,4-dichlorophenyl)ethyl)amino)pyrazin-2-yl)azetidin-3-yl)piperidin-1-yl)propanoic acid] | – | – | IC50 (Table 4, CCL22 1.5 nM): > 500 nM
C[C@@H](Nc1nc(N2CC([C@H]3CCCN(CCO)C3)C2)nc2ccsc12)c1ccc(Cl)cc1Cl [Example 62, 2-[(3R)-3-[1-[4-[[(1R)-1-(2,4-dichlorophenyl)ethyl]amino]thieno[3,2-d]pyrimidin-2-yl]azetidin-3-yl]-1-piperidyl]ethanol; 2,2,2-trifluoroacetic acid] | < 100 | – | –
C[C@@H](Nc1nc(N2CC([C@H]3CCCN(CCO)C3)C2)cnc1C#N)c1ccc(Cl)cc1Cl [Example 1, 3-(((R)-1-(2,4-dichlorophenyl)ethyl)amino)-5-(3-((R)-1-(2-hydroxyethyl)piperidin-3-yl)azetidin-1-yl)pyrazine-2-carbonitrile] | – | < 100 | –
C[C@@H](Nc1nc(N2CC([C@H]3CCCN([C@H]4C[C@@H](C(=O)O)C4)C3)C2)nc2ccc(F)cc12)c1ccc(Cl)cc1Cl [Example 66, 3-[(1S,3R)-3-[1-[4-[[(1R)-1-(2,4-dichlorophenyl)ethyl]amino]-6-fluoro-quinazolin-2-yl]azetidin-3-yl]-1-piperidyl]cyclobutanecarboxylic acid; 2,2,2-trifluoroacetic acid] | < 100 | – | –
C[C@@H](Nc1nc(N2CC(C3CCCN([C@H]4C[C@@H](O)C4)C3C(=O)O)C2)ncc1Cl)c1ccc(Cl)cc1Cl (stereo partly drawn) [Example 87, 3-[1-[5-chloro-4-[[(1R)-1-(2,4-dichlorophenyl)ethyl]amino]pyrimidin-2-yl]azetidin-3-yl]-1-(3-hydroxycyclobutyl)piperidine-2-carboxylic acid; 2,2,2-trifluoroacetic acid] | < 100 | – | –
C[C@@H](Nc1cnc(C#N)c(N2CC([C@H]3CCCN(C4CC(C)(C(=O)O)C4)C3)C2)n1)c1ccc(Cl)cc1Cl (single isomer, unassigned) [Example 52] | – | – | IC50 (Table 4, CCL22 1.5 nM): > 500 nM
C[C@@H](Nc1nc(N2CC([C@H]3CCCN(CCO)C3)C2)nc2ccccc12)c1ccc(Cl)cc1Cl [Example 26, 2-((R)-3-(1-(4-(((R)-1-(2,4-dichlorophenyl)ethyl)amino)quinazolin-2-yl)azetidin-3-yl)piperidin-1-yl)ethan-1-ol] | – | < 100 | –
C[C@@H](Nc1nc(N2CC([C@H]3CCCN(CCO)C3)C2)ncc1Cl)c1ccc(Cl)cc1Cl [Example 10, 2-((R)-3-(1-(5-chloro-4-(((R)-1-(2,4-dichlorophenyl)ethyl)amino)pyrimidin-2-yl)azetidin-3-yl)piperidin-1-yl)ethan-1-ol] | – | < 100 | –
Cc1ncc(N2CC([C@H]3CCCN(CCO)C3)C2)nc1N[C@H](C)c1ccc(Cl)cc1Cl [Example 3, 2-((R)-3-(1-(6-(((R)-1-(2,4-dichlorophenyl)ethyl)amino)-5-methylpyrazin-2-yl)azetidin-3-yl)piperidin-1-yl)ethan-1-ol] | – | > 500 | –
